The values below come from ChEMBL document CHEMBL3132769, “Fragment growing to retain or alter the selectivity of anchored kinase hinge-binding fragments” (Medchemcomm, 2014).

Test [1] concerns the target RAF proto-oncogene serine/threonine-protein kinase (Homo sapiens) (UniProt P04049). Kind of test: Inhibition of human truncated c-Raf expressed in baculovirus assessed as substrate phosphorylation using fluorescence-labelled peptides as substrate at 8 uM after 90 mins by microfluidic peptide phosphorylation assay.
For test [2], the target named is Casein kinase I isoform alpha (Homo sapiens) (UniProt P48729). Description: Inhibition of human full length CSNK1A1 expressed in baculovirus assessed as substrate phosphorylation using fluorescence-labelled peptides as substrate at 420 uM after 90 mins by microfluidic peptide phosphorylation assay.
Test [3] has as its target Tyrosine-protein kinase BTK (Homo sapiens) (UniProt Q06187). Kind of test: Inhibition of human full length BTK expressed in baculovirus assessed as substrate phosphorylation using fluorescence-labelled peptides as substrate at 420 uM after 90 mins by microfluidic peptide phosphorylation assay.
Test [4] concerns the target Tyrosine-protein kinase Fer (Homo sapiens) (UniProt P16591). Description: Inhibition of human FER catalytic domain expressed in baculovirus assessed as substrate phosphorylation using fluorescence-labelled peptides as substrate at 420 uM after 90 mins by microfluidic peptide phosphorylation assay.
Test [5] has as its target Cyclin-dependent kinase 2 (Homo sapiens) (UniProt P24941). Description: Inhibition of human full length CDK2 expressed in baculovirus assessed as substrate phosphorylation using fluorescence-labelled peptides as substrate at 420 uM after 90 mins by microfluidic peptide phosphorylation assay.
Test [6] relates to Tyrosine-protein kinase ABL1 (Homo sapiens), P00519 [Q252H]. Kind of test: Inhibition of human truncated ABL Q252H mutant expressed in baculovirus assessed as substrate phosphorylation using fluorescence-labelled peptides as substrate at 0.1 uM after 90 mins by microfluidic peptide phosphorylation assay.
In test [7] the test system is Tyrosine-protein kinase ABL1 (Homo sapiens), P00519 [H396P]. Kind of test: Inhibition of human truncated ABL H396P mutant expressed in baculovirus assessed as substrate phosphorylation using fluorescence-labelled peptides as substrate at 0.06 uM after 90 mins by microfluidic peptide phosphorylation assay.
For test [8], the target named is Platelet-derived growth factor receptor alpha (Homo sapiens) (UniProt P16234). Description: Inhibition of human PDGFR alpha catalytic domain expressed in baculovirus assessed as substrate phosphorylation using fluorescence-labelled peptides as substrate at 0.2 uM after 90 mins by microfluidic peptide phosphorylation assay.
For test [9], the target named is Tyrosine-protein kinase Lck (Homo sapiens) (UniProt P06239). Description: Inhibition of human full length LCK expressed in baculovirus assessed as substrate phosphorylation using fluorescence-labelled peptides as substrate at 0.2 uM after 90 mins by microfluidic peptide phosphorylation assay.
The target of test [10] is Protein kinase C beta type (Homo sapiens) (UniProt P05771). Kind of test: Inhibition of human full length PKC beta2 expressed in baculovirus assessed as substrate phosphorylation using fluorescence-labelled peptides as substrate at 0.2 uM after 90 mins by microfluidic peptide phosphorylation assay.
For test [11], the target named is Mitogen-activated protein kinase 3 (Homo sapiens) (UniProt P27361). Description: Inhibition of human full length ERK1 expressed in Escherichia coli cell assessed as substrate phosphorylation using fluorescence-labelled peptides as substrate at 9 uM after 90 mins by microfluidic peptide phosphorylation assay.
Test [12] has as its target Protein kinase C alpha type (Homo sapiens) (UniProt P17252). Description: Inhibition of human truncated PKC alpha expressed in baculovirus assessed as substrate phosphorylation using fluorescence-labelled peptides as substrate at 70 uM after 90 mins by microfluidic peptide phosphorylation assay.
Test [13] deals with T1, Receptor-type tyrosine-protein kinase FLT3 (Homo sapiens), P36888 [D835Y].
T1 sequence (whole entry): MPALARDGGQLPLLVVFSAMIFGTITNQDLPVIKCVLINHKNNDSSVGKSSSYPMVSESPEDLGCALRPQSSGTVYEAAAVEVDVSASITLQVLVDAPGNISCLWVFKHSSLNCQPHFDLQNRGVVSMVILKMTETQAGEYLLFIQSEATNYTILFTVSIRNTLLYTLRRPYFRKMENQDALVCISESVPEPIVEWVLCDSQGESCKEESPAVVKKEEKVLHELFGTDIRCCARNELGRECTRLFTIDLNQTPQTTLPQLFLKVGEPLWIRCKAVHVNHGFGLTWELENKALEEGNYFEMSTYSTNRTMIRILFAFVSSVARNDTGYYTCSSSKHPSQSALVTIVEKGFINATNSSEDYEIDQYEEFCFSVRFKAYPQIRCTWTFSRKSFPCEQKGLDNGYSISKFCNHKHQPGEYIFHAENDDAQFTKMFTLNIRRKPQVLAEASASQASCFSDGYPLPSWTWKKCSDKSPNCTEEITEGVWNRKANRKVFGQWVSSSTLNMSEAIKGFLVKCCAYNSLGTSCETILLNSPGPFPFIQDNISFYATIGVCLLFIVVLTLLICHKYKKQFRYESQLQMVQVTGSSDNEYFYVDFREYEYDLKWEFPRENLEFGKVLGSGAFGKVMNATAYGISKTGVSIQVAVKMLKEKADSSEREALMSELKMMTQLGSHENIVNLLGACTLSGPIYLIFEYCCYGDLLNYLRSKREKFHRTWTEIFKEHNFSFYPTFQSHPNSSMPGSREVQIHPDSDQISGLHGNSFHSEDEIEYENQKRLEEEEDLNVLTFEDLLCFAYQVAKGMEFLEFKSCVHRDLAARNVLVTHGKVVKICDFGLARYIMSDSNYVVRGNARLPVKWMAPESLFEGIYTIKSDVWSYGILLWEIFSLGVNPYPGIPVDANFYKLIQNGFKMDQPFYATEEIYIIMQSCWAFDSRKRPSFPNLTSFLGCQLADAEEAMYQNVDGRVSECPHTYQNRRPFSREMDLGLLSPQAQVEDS
Description: Inhibition of human FLT3 D835Y mutant catalytic domain expressed in baculovirus assessed as substrate phosphorylation using fluorescence-labelled peptides as substrate at 70 uM after 90 mins by microfluidic peptide phosphorylation assay.

The target of test [14] is Protein kinase C gamma type (Homo sapiens) (UniProt P05129). Description: Inhibition of human truncated PKC gamma expressed in baculovirus assessed as substrate phosphorylation using fluorescence-labelled peptides as substrate at 2 uM after 90 mins by microfluidic peptide phosphorylation assay.
Test [15] concerns the target Ribosomal protein S6 kinase alpha-5 (Homo sapiens) (UniProt O75582). Description: Inhibition of human full length MSK1 expressed in baculovirus assessed as substrate phosphorylation using fluorescence-labelled peptides as substrate at 95 uM after 90 mins by microfluidic peptide phosphorylation assay.
Test [16] deals with Mitogen-activated protein kinase 14 (Homo sapiens) (UniProt Q16539). Description: Inhibition of human truncated p38 alpha expressed in Escherichia coli cell assessed as substrate phosphorylation using fluorescence-labelled peptides as substrate at […] after 90 mins by microfluidic peptide phosphorylation assay.
Test [17] deals with Serine/threonine-protein kinase PAK 2 (Homo sapiens) (UniProt Q13177). Description: Inhibition of human truncated PAK2 expressed in Escherichia coli cell assessed as substrate phosphorylation using fluorescence-labelled peptides as substrate at […] after 90 mins by microfluidic peptide phosphorylation assay.

Broadly, the inhibition is the drop in the measured response relative to a control, in per cent.

Molecules are shown by their SMILES.

Sequence of Tyrosine-protein kinase Lck (Homo sapiens) (P06239 2-509 limits assumed): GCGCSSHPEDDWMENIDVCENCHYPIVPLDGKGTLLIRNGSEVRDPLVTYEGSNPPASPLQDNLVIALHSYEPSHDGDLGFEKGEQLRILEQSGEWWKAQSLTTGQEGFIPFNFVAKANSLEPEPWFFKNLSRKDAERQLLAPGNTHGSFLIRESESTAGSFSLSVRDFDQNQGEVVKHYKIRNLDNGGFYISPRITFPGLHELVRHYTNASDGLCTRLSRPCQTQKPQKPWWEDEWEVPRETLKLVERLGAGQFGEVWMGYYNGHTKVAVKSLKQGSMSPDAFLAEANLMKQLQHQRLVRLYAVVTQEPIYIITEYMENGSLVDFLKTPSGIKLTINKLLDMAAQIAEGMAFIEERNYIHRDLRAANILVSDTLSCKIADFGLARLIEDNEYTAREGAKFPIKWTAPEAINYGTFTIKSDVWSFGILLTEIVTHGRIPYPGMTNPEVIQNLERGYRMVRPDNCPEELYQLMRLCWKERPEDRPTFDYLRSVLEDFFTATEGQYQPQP
Sequence of Tyrosine-protein kinase BTK (Homo sapiens) (Q06187 whole entry, the tested form may be a part): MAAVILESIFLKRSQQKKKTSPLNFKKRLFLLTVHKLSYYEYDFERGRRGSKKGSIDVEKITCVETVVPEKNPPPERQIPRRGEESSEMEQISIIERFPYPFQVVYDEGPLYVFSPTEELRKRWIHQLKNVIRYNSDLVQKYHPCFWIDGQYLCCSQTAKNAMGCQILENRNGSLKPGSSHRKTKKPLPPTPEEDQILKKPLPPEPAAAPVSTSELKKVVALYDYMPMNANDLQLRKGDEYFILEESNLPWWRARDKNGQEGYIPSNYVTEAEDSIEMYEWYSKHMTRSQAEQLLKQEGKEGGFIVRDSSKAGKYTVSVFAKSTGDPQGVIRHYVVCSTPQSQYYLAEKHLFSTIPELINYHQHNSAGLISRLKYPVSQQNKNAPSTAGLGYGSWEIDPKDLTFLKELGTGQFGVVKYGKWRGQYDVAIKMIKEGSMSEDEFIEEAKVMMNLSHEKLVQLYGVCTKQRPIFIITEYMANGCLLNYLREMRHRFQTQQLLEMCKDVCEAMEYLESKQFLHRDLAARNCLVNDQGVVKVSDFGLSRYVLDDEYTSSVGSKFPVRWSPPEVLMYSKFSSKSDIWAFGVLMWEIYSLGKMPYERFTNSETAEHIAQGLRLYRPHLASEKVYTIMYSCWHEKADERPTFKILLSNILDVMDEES
Sequence of RAF proto-oncogene serine/threonine-protein kinase (Homo sapiens) (P04049 whole entry, the tested form may be a part, canonical isoform): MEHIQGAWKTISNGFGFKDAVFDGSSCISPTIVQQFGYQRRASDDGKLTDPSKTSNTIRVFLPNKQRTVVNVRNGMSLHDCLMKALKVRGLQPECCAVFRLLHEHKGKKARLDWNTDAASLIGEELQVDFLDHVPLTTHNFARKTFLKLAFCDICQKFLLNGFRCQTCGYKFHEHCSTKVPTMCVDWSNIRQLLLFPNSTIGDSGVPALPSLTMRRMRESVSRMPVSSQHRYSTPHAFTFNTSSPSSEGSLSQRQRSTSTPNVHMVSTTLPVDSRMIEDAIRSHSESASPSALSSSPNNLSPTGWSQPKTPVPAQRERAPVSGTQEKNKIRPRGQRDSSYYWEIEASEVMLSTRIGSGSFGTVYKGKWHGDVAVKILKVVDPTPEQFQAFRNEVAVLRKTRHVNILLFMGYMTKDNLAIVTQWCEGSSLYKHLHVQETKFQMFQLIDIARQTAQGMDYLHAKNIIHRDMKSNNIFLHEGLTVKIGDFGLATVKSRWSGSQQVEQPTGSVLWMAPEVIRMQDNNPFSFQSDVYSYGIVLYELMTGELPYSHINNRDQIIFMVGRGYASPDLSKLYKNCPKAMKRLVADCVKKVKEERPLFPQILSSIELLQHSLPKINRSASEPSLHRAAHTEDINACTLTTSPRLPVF
Sequence of Serine/threonine-protein kinase PAK 2 (Homo sapiens) (Q13177 whole entry, the tested form may be a part): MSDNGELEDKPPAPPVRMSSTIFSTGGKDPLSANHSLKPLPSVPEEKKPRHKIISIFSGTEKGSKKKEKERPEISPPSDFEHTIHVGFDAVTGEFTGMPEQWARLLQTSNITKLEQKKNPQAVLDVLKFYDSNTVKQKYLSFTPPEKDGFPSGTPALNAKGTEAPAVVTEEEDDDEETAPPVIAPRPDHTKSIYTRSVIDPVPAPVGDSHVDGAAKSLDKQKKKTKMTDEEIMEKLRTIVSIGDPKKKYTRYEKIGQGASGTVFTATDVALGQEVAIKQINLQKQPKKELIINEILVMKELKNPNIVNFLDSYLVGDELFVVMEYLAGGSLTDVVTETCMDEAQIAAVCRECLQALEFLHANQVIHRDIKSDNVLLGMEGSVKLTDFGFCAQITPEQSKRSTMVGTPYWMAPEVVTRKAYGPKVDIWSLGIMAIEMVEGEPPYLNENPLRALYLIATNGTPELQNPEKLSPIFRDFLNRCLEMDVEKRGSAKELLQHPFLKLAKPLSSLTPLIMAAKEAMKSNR
Sequence of Ribosomal protein S6 kinase alpha-5 (Homo sapiens) (O75582 whole entry, looked up, the tested form may be a part): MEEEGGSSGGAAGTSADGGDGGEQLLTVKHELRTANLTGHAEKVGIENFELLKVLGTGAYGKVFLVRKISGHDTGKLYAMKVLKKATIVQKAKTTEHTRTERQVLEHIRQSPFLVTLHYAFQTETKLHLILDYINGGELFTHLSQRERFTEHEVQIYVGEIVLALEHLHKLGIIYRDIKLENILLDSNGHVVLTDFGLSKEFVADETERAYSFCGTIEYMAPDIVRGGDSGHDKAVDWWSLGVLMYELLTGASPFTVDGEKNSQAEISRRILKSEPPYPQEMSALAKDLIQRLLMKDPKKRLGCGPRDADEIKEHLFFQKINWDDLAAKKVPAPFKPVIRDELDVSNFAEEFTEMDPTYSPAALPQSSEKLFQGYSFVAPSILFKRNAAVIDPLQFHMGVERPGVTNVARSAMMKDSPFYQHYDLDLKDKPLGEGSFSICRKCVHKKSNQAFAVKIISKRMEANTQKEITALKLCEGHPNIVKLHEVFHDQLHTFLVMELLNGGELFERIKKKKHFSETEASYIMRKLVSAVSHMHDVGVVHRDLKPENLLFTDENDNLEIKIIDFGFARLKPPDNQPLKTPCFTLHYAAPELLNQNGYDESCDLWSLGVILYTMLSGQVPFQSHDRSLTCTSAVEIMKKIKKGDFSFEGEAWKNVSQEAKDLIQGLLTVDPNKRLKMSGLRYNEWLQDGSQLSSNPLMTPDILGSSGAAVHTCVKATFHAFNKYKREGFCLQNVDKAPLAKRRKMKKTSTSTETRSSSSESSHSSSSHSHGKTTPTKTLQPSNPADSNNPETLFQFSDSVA
Sequence of Mitogen-activated protein kinase 14 (Homo sapiens) (Q16539 whole entry, the tested form may be a part): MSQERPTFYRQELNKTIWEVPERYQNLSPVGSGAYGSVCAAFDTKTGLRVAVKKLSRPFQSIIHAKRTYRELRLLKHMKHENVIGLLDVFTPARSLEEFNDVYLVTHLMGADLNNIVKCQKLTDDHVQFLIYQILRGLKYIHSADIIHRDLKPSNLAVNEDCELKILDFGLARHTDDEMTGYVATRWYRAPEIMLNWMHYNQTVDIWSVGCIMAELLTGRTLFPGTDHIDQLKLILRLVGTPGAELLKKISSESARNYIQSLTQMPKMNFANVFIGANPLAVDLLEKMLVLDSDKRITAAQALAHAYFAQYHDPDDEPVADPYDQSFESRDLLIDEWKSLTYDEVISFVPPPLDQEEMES

`NCC1CCN(c2ncnc3[nH]ccc23)CC1`: the inhibition in test [1] amounted to 2.5%.
Turning to `c1nc(N2CCOCC2)c2nc[nH]c2n1`, the inhibition in [2] was determined as 60.5%; in test [3], 55%; in test [4], 70.5%; in [5], 75%.
For the molecule `C[C@H](CN(C)C)Oc1nc(Nc2cc3cccc(Cl)c3cn2)cnc1C#N`, in test [6], the inhibition was found to be 4%.
As for `NC1(Cc2ccc(Cl)cc2)CCN(c2ncnc3[nH]ccc23)CC1`, the inhibition in test [7] came out at 0.5%.
For the molecule `Clc1ccc(C2(c3ccc(-c4ncnc5[nH]cnc45)cc3)CCNCC2)cc1`, the values for the inhibition in [8], in test [9] and in test [10] were 0.5%, 35% and 38.5%, respectively.
As to `NCC1CN(c2ncnc3[nH]c4cnccc4c23)CCO1` (configuration not stated), in test [11], the inhibition worked out at 8.5%.
On to `CNCc1ccc(-c2ncnc3[nH]cnc23)cc1`, for which the inhibition in test [12] worked out at 56%; in test [13] it was 69%.
As for `NC1CCN(c2ncnc3[nH]ccc23)CC1`, the inhibition in [14] came to 57.5%.
As to `NCCc1ccc(-c2ncnc3[nH]cnc23)cc1`, the inhibition in test [15] is 76%.
On to `COC(=O)c1cnc(Nc2cnc(C#N)cn2)cc1NCC1CCNCC1`, for which the inhibition in test [16] was found to be 2%; in test [17], 1.5%.
